# According to patent publication US8562949B2, “Radiolabeled dihydrotetrabenazine derivatives and their use as imaging agents” (The Trustees of the University of Pennsylvania, priority 2006, dated 2013):
# Where “and” joins values, the source holds several entries; their conditions need not be identical. Equal values may be shown once.
# What was measured:
# VMAT2 = VMAT2 (Rattus norvegicus, UniProt Q01827); test: Blocking of pancreatic signal by DTBZ in rats; format: in vivo; set-up: from tissue; host or cells: living rats; organs dissected after iv injection; conditions: 30 min, DTBZ 3.8 mg/kg pretreatment
# VMAT2, sequence (Q01827 whole entry): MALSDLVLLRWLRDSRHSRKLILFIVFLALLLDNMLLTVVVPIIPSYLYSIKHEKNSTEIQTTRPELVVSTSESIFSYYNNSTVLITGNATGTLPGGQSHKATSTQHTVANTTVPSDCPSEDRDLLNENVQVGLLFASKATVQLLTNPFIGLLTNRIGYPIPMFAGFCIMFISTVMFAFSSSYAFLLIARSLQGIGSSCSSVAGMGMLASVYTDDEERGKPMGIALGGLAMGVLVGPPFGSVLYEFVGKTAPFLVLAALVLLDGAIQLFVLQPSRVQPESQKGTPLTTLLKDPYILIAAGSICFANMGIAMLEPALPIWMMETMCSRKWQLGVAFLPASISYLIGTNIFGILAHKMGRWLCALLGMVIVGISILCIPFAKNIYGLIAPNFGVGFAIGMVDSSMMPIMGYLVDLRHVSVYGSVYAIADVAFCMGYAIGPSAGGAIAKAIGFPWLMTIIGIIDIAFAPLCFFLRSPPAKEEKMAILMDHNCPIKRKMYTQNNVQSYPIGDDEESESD
# Protocol: Rats were pretreated with non-radiolabeled DBTZ (3.8 mg/kg) five minutes prior to injection with (+)-6b.
# islet cell homogenates = test: In vitro binding to islet cell homogenates (FIG. 8)
# [1] = Partition coefficient 1-octanol/phosphate buffer; format: physicochemical; conditions: pH 7.4, 1-octanol and phosphate buffer
# Protocol: Partition coefficients were measured by mixing the [^18F]tracer with 3 g each of 1-octanol and buffer (0.1 M phosphate, pH 7.4) in a test tube. The test tube was vortexed for 3 min at room temperature, followed by centrifugation for 5 min. Two weighed samples (0.5 g each) from the 1-octanol and buffer layers were counted in a well counter. The partition coefficient was determined by calculating the ratio of cpm/g of 1-octanol to that of buffer. Samples from the 1-octanol layer were re-partitioned until consistent partitions of coefficient values were obtained. Values are the mean±SEM of three independent experiments, each in duplicates.
# [2] = Biodistribution of [18F]6a and [18F]6b in normal mice (iv injection); format: in vivo, ICR mice
# Protocol: While under isoflurane anesthesia, 0.15 mL of a 0.1% bovine serum albumin solution containing [^18F]tracers (10-20 μCi) were injected directly into the tail vein of ICR mice (22-25 g, male) The mice (n=3 for each time point) were sacrificed by cervical dislocation at indicated time points post injection. The organs of interest were removed and weighed, and the radioactivity was counted with an automatic gamma counter. The percentage dose per organ was calculated by a comparison of the tissue counts to suitably diluted aliquots of the injected material. Total activities of blood were calculated under the assumption that they were 7% of the total body weight. The % dose/g of samples was calculated by comparing the sample counts with the count of the diluted initial dose.
compound,measurement,setting,value
COc1cc2c(cc1OCCC[18F])CCN1C[C@@H](CC(C)C)[C@H](O)C[C@H]21 [[^18F]-(+)-6b],"Blocking, Pancreas",VMAT2,30%
same,"Blocking, Striatum",VMAT2,> 90%
same,binding to islet cell homogenates,islet cell homogenates,specific and saturable
COc1cc2c(cc1OCCC[18F])CCN1CC(CC(C)C)C(O)CC21 (racemic) [[^18F]6b],logD at 3 min,[1],2.61
same,remaining in brain (brain washout),"[2]; 30 min p.i., normal mice",13%
same,brain uptake,"[2]; mice, iv, 2 min",7.08 % ID/g
same,ST/CB ratio,"[2]; mice, iv, time not stated",3.0
same,Organ distribution Blood,"[2]; normal mice, iv, 2 min",2.60 ± 0.31 % dose/g
same,Organ distribution Bone,"[2]; normal mice, iv, 2 min",2.70 ± 0.44 % dose/g
same,Organ distribution Brain,"[2]; normal mice, iv, 2 min",7.08 % dose/g and 7.08 ± 2.17 % dose/g
same,Organ distribution Heart,"[2]; normal mice, iv, 2 min",6.79 ± 1.49 % dose/g
same,Organ distribution Kidney,"[2]; normal mice, iv, 2 min",16.1 ± 3.13 % dose/g
same,Organ distribution Liver,"[2]; normal mice, iv, 2 min",24.1 ± 4.93 % dose/g
same,Organ distribution Lung,"[2]; normal mice, iv, 2 min",7.97 ± 1.46 % dose/g
same,Organ distribution Muscle,"[2]; normal mice, iv, 2 min",1.17 ± 0.16 % dose/g
same,Organ distribution Skin,"[2]; normal mice, iv, 2 min",1.13 ± 0.25 % dose/g
same,Organ distribution Spleen,"[2]; normal mice, iv, 2 min",9.19 ± 0.26 % dose/g
same,Ratio (vs CB) Cortex,"[2]; normal mice, iv, 2 min",1.32
same,Ratio (vs CB) Hippocampus,"[2]; normal mice, iv, 2 min",1.13
same,Ratio (vs CB) Striatum,"[2]; normal mice, iv, 2 min",1.36
same,Regional brain distribution Cerebellum (CB),"[2]; normal mice, iv, 2 min",6.26 ± 2.89 % dose/g
same,Regional brain distribution Cortex,"[2]; normal mice, iv, 2 min",8.25 ± 2.51 % dose/g
same,Regional brain distribution Hippocampus,"[2]; normal mice, iv, 2 min",7.07 ± 1.66 % dose/g
same,Regional brain distribution Striatum,"[2]; normal mice, iv, 2 min",8.49 ± 1.12 % dose/g
same,Organ distribution Blood,"[2]; normal mice, iv, 15 min",1.75 ± 0.07 % dose/g
same,Organ distribution Bone,"[2]; normal mice, iv, 15 min",3.65 ± 0.49 % dose/g
same,Organ distribution Brain,"[2]; normal mice, iv, 15 min",2.01 ± 0.10 % dose/g
same,Organ distribution Heart,"[2]; normal mice, iv, 15 min",2.43 ± 0.16 % dose/g
same,Organ distribution Kidney,"[2]; normal mice, iv, 15 min",5.90 ± 0.25 % dose/g
same,Organ distribution Liver,"[2]; normal mice, iv, 15 min",15.8 ± 1.65 % dose/g
same,Organ distribution Lung,"[2]; normal mice, iv, 15 min",3.58 ± 0.33 % dose/g
same,Organ distribution Muscle,"[2]; normal mice, iv, 15 min",1.16 ± 0.35 % dose/g
same,Organ distribution Skin,"[2]; normal mice, iv, 15 min",1.15 ± 0.16 % dose/g
same,Organ distribution Spleen,"[2]; normal mice, iv, 15 min",3.38 ± 0.49 % dose/g
same,Ratio (vs CB) Cortex,"[2]; normal mice, iv, 15 min",1.00
same,Ratio (vs CB) Hippocampus,"[2]; normal mice, iv, 15 min",1.31
same,Ratio (vs CB) Striatum,"[2]; normal mice, iv, 15 min",2.53
same,Regional brain distribution Cerebellum (CB),"[2]; normal mice, iv, 15 min",1.63 ± 0.05 % dose/g
same,Regional brain distribution Cortex,"[2]; normal mice, iv, 15 min",1.62 ± 0.05 % dose/g
same,Regional brain distribution Hippocampus,"[2]; normal mice, iv, 15 min",2.14 ± 0.16 % dose/g
same,Regional brain distribution Striatum,"[2]; normal mice, iv, 15 min",4.12 ± 0.52 % dose/g
same,Organ distribution Blood,"[2]; normal mice, iv, 30 min",1.92 ± 0.22 % dose/g
same,Organ distribution Bone,"[2]; normal mice, iv, 30 min",9.62 ± 3.42 % dose/g
same,Organ distribution Brain,"[2]; normal mice, iv, 30 min",1.76 ± 0.27 % dose/g
same,Organ distribution Heart,"[2]; normal mice, iv, 30 min",2.67 ± 0.26 % dose/g
same,Organ distribution Kidney,"[2]; normal mice, iv, 30 min",6.80 ± 0.65 % dose/g
same,Organ distribution Liver,"[2]; normal mice, iv, 30 min",17.3 ± 2.00 % dose/g
same,Organ distribution Lung,"[2]; normal mice, iv, 30 min",3.46 ± 0.36 % dose/g
same,Organ distribution Muscle,"[2]; normal mice, iv, 30 min",1.53 ± 0.16 % dose/g
same,Organ distribution Skin,"[2]; normal mice, iv, 30 min",2.22 ± 0.20 % dose/g
same,Organ distribution Spleen,"[2]; normal mice, iv, 30 min",3.40 ± 0.43 % dose/g
same,Ratio (vs CB) Cortex,"[2]; normal mice, iv, 30 min",1.11
same,Ratio (vs CB) Hippocampus,"[2]; normal mice, iv, 30 min",1.97
same,Ratio (vs CB) Striatum,"[2]; normal mice, iv, 30 min",3.0 and 2.95
same,Regional brain distribution Cerebellum (CB),"[2]; normal mice, iv, 30 min",1.30 ± 0.19 % dose/g
same,Regional brain distribution Cortex,"[2]; normal mice, iv, 30 min",1.45 ± 0.38 % dose/g
same,Regional brain distribution Hippocampus,"[2]; normal mice, iv, 30 min",2.55 ± 1.20 % dose/g
same,Regional brain distribution Striatum,"[2]; normal mice, iv, 30 min",3.84 ± 1.05 % dose/g
same,Organ distribution Bone,"[2]; normal mice, iv, 30 min, listed as [^1F]6b",9.62 % dose/g
same,Organ distribution Blood,"[2]; normal mice, iv, 1 hr",1.04 ± 0.07 % dose/g
same,Organ distribution Bone,"[2]; normal mice, iv, 1 hr",16.6 ± 1.60 % dose/g
same,Organ distribution Brain,"[2]; normal mice, iv, 1 hr",0.91 ± 0.25 % dose/g
same,Organ distribution Heart,"[2]; normal mice, iv, 1 hr",1.74 ± 0.14 % dose/g
same,Organ distribution Kidney,"[2]; normal mice, iv, 1 hr",3.63 ± 0.30 % dose/g
same,Organ distribution Liver,"[2]; normal mice, iv, 1 hr",10.4 ± 0.95 % dose/g
same,Organ distribution Lung,"[2]; normal mice, iv, 1 hr",2.15 ± 0.12 % dose/g
same,Organ distribution Muscle,"[2]; normal mice, iv, 1 hr",1.05 ± 0.41 % dose/g
same,Organ distribution Skin,"[2]; normal mice, iv, 1 hr",1.38 ± 0.03 % dose/g
same,Organ distribution Spleen,"[2]; normal mice, iv, 1 hr",2.05 ± 0.05 % dose/g
same,Ratio (vs CB) Cortex,"[2]; normal mice, iv, 1 hr",1.10
same,Ratio (vs CB) Hippocampus,"[2]; normal mice, iv, 1 hr",1.35
same,Ratio (vs CB) Striatum,"[2]; normal mice, iv, 1 hr",2.71
same,Regional brain distribution Cerebellum (CB),"[2]; normal mice, iv, 1 hr",0.77 ± 0.06 % dose/g
same,Regional brain distribution Cortex,"[2]; normal mice, iv, 1 hr",0.85 ± 0.12 % dose/g
same,Regional brain distribution Hippocampus,"[2]; normal mice, iv, 1 hr",1.04 ± 0.16 % dose/g
same,Regional brain distribution Striatum,"[2]; normal mice, iv, 1 hr",2.08 ± 0.27 % dose/g
same,Organ distribution Blood,"[2]; normal mice, iv, 2 hr",0.56 ± 0.07 % dose/g
same,Organ distribution Bone,"[2]; normal mice, iv, 2 hr",17.8 ± 1.83 % dose/g
same,Organ distribution Brain,"[2]; normal mice, iv, 2 hr",0.53 ± 0.05 % dose/g
same,Organ distribution Heart,"[2]; normal mice, iv, 2 hr",1.02 ± 0.09 % dose/g
same,Organ distribution Kidney,"[2]; normal mice, iv, 2 hr",2.40 ± 0.51 % dose/g
same,Organ distribution Liver,"[2]; normal mice, iv, 2 hr",8.53 ± 1.73 % dose/g
same,Organ distribution Lung,"[2]; normal mice, iv, 2 hr",1.40 ± 0.09 % dose/g
same,Organ distribution Muscle,"[2]; normal mice, iv, 2 hr",0.56 ± 0.11 % dose/g
same,Organ distribution Skin,"[2]; normal mice, iv, 2 hr",1.24 ± 0.53 % dose/g
same,Organ distribution Spleen,"[2]; normal mice, iv, 2 hr",1.15 ± 0.41 % dose/g
same,Ratio (vs CB) Cortex,"[2]; normal mice, iv, 2 hr",0.91
same,Ratio (vs CB) Hippocampus,"[2]; normal mice, iv, 2 hr",1.12
same,Ratio (vs CB) Striatum,"[2]; normal mice, iv, 2 hr",1.94
same,Regional brain distribution Cerebellum (CB),"[2]; normal mice, iv, 2 hr",0.45 ± 0.01 % dose/g
same,Regional brain distribution Cortex,"[2]; normal mice, iv, 2 hr",0.41 ± 0.06 % dose/g
same,Regional brain distribution Hippocampus,"[2]; normal mice, iv, 2 hr",0.50 ± 0.06 % dose/g
same,Regional brain distribution Striatum,"[2]; normal mice, iv, 2 hr",0.87 ± 0.24 % dose/g
